Assay results taken from patent US20250339409A1, “USES OF PAN BET INHIBITORS” (VYNE THERAPEUTICS INC., priority 2021, published 2025).
Where “and” joins values, the source holds several entries; their conditions need not be identical. Equal values may be shown once.

Columns and labels:
TRP-1 = experiment: RHE vitiligo model: melanocyte localization after TRP-1 immunostaining; assay type: cell-based, human; settings: for Mean per RHE (%): RHE1-3
Protocol: TRP-1 (tyrosinase related protein-1) is a melanocyte specific protein and a member of the tyrosinase gene family which also includes tyrosinase. It is very often used as specific marker of melanocytes. To visualize and quantify the melanocytes within the epidermis, sections of epidermis (6 μm thick) prepared from epidermis embedded in paraffin are used for TRP-1 immunostaining.
After deparaffination and re-hydration, antigen unmasking is performed by heating in citrate ph6 buffer. Samples are then saturated with goat serum, in order to avoid unspecific labelling.
Samples are incubated overnight, at 4° C., with a primary antibody raised against human TRP-1 (Abcam; Ab235447). After washing, the samples are incubated (for 30 minutes, at room temperature) with a secondary antibody anti-rabbit coupled to Alexa Fluor 488 dye (Thermo Fisher Scientific; A-11008). Samples are then incubated with DAPI or 4′,6′-diamidino-2-phenylindole (Thermo Fisher Scientific, D1306), a fluorescent molecule able of binding to the adenine and thymine bases of DNA and slides are mounted with specific medium, before taking the images. For each tissue/sample, 1 slide section is used to make 3 images. Images are taken using a Nikon Eclipse (Ni-E) photomicroscope coupled to a numerical camera (DS-Ri2). Quantification of the protein is performed with NIS-Element AR software (Nikon). The detection thresholds are firstly determined, using the most marked slices, in order to avoid saturation of detection. For each image, a region of interest (ROI) is delimited manually (including only the basal layers of epidermis which are supposed to contain the melanocytes) and its surface was measured. The software then measures the marked area within the delimited area, in number of pixels. The mean intensity of the marked surface multiplied by the “marked surface” determines the staining for the given ROI. This value is then normalized for a given surface by dividing the staining value by the surface of the ROI.
Formulations containing four doses of BETi1 the BETi1 vehicle (placebo), were evaluated in RHE TNF-α/IFN-γ vitiligo model as described in Experimental section Method G and representative images of RHE after TRP-1 staining are shown in FIG. 7A and respective quantification with and without normalization are shown in Table 19 and Table 20 and FIGS. 7B and FIG. 7C respectively. The stimulation with the cytokine cocktail (TNF-α and IFN- ? ) in accordance with Part A and B, reduced the expression of TRP-1 and thus the abundance of melanocytes in the basal layers of the RHE, confirming the melanocytorhagy. In the model, stimulated treated with the vehicle induced a significant […] of TRP-1 abundance as compared to the stimulated untreated control. Without being bound by any theory the barrier effect provided by petrolatum in the vehicle, which increases skin hydration, has some effect on retention of melanocytes in the basal layer. […] A dose response could clearly be observed with the BETi1 formulation, with a tendency to the increase for the dose of 0.1% and with the two last concentrations being not significant. The effects of the ruxolitinib cream at 1% could not be assessed given that the sections have detached from the glass slides during the immunostaining process (probably without being bound by any theory may be due to the bad structure of the epidermis).

hydroxyproline = experiment: Bleomycin mice: hydroxyproline content of lung tissue (colorimetric assay); assay type: in vivo, C57BL/6 male mice; settings: for Mean Diff., Hydroxyproline Level of Lung, Group 2 Bleo/Veh vs. BETi1 group: One Way ANOVA, Dunnett's; for Mean Diff., Hydroxyproline Level of Lung, Group 2 Bleo/Veh vs. BETi1 group / Mean 2 (group mean), Hydroxyproline Level of Lung: in µg/mg
Protocol: The left lobe of lung tissue is collected, and snap frozen for hydroxyproline levels analysis. Hydroxyproline (4-hydroxyproline, Hyp) is a common nonproteinogenic amino acid. Hydroxyproline in tissue hydrolysates is an indirect measure of the amount of collagen present. Hydroxyproline content of lung tissue is measured by colorimetric assay.

[1] = BETi1 0.001%, stimulated RHE, without normalization to ROI
[2] = BETi1 1%, stimulated RHE, with normalization to ROI
[3] = BETi1 1%, stimulated RHE, without normalization to ROI
[4] = BETi1 10.001% [sic], stimulated RHE, with normalization to ROI

SMILES: Cn1cc(-c2cccc(O)c2Oc2ccccc2)c2cc[nH]c2c1=O [BETi1]
- Mean per condition (%) (TRP-1; [1]): 24%
- Mean per RHE (%) (TRP-1; [1]): 21.6% and 27.0% and 22.1%
- Mean per condition (%) (TRP-1; BETi1 0.01%, stimulated RHE, with normalization to ROI): 15%
- Mean per condition (%) (TRP-1; BETi1 0.01%, stimulated RHE, without normalization to ROI): 20%
- Mean per condition (%) (TRP-1; BETi1 0.1%, stimulated RHE, with normalization to ROI): 92%
- Mean per condition (%) (TRP-1; BETi1 0.1%, stimulated RHE, without normalization to ROI): 120%
- Mean per condition (%) (TRP-1; [2]): 149%
- Mean per RHE (%) (TRP-1; [2]): 169% and 120% and 158%
- Mean per condition (%) (TRP-1; [3]): 192%
- Mean per RHE (%) (TRP-1; [3]): 220.8% and 151.1% and 203.4%
- Mean per condition (%) (TRP-1; [4]): 17%
- Mean per RHE (%) (TRP-1; [4]): 18% and 19% and 14%
- TRP-1 in the basal layers (TRP-1; BETi1 formulation at 1%, stimulated RHE): TRP-1 is significantly increased in the basal layers
- TRP-1 % staining relative to stimulated control, Mean per RHE (%) (TRP-1; Stimulated + BETi1 0.001%): 6% and 8%
- TRP-1 % staining relative to stimulated control, Mean per condition (%) (TRP-1; Stimulated + BETi1 0.001%): 7%
- TRP-1 % staining relative to stimulated control, Mean per condition (%) (TRP-1; Stimulated + BETi1 0.01%): 30%
- TRP-1 % staining relative to stimulated control, Mean per condition (%) (TRP-1; Stimulated + BETi1 0.1%): 227%
- TRP-1 % staining relative to stimulated control, Mean per condition (%) (TRP-1; Stimulated + BETi1 1%): 292%
- reduction in hydroxyproline levels (hydroxyproline; 3 mg/mL (group 5)): statistically significant compared to treatment with vehicle
- hydroxyproline levels (hydroxyproline; 0.06, 0.6 and 3 mg/mL, vs bleomycin and vehicle): demonstrated a decrease in hydroxyproline levels
- Hydroxyproline Level of Lung, Mean (hydroxyproline; Group 3 Bleo/BETi1 0.06 mg/mL): 0.2248 μg/mg tissue
- Hydroxyproline Level of Lung, individual animals (hydroxyproline; Group 3 Bleo/BETi1 0.06 mg/mL): 0.1154 μg/mg tissue and 0.2842 μg/mg tissue and 0.3149 μg/mg tissue and 0.2968 μg/mg tissue and 0.3372 μg/mg tissue and 0.1322 μg/mg tissue and 0.1196 μg/mg tissue and 0.1977 μg/mg tissue
- Mean Diff., Hydroxyproline Level of Lung, Group 2 Bleo/Veh vs. BETi1 group (hydroxyproline; Group 3 Bleo/BETi1 0.06 mg/mL): 0.08927
- Mean 2 (group mean), Hydroxyproline Level of Lung (hydroxyproline; Group 3 Bleo/BETi1 0.06 mg/mL): 0.2248
- Hydroxyproline Level of Lung, Mean (hydroxyproline; Group 4 Bleo/BETi1 0.6 mg/mL): 0.2535 μg/mg tissue
- Hydroxyproline Level of Lung, individual animals (hydroxyproline; Group 4 Bleo/BETi1 0.6 mg/mL): 0.1377 μg/mg tissue and 0.3400 μg/mg tissue and 0.2954 μg/mg tissue and 0.1503 μg/mg tissue and 0.2745 μg/mg tissue and 0.3191 μg/mg tissue and 0.2242 μg/mg tissue and 0.2703 μg/mg tissue and 0.1029 μg/mg tissue and 0.2298 μg/mg tissue and 0.3121 μg/mg tissue and 0.2982 μg/mg tissue and 0.3414 μg/mg tissue
- Mean Diff., Hydroxyproline Level of Lung, Group 2 Bleo/Veh vs. BETi1 group (hydroxyproline; Group 4 Bleo/BETi1 0.6 mg/mL): 0.0605
- Mean 2 (group mean), Hydroxyproline Level of Lung (hydroxyproline; Group 4 Bleo/BETi1 0.6 mg/mL): 0.2535
- Hydroxyproline Level of Lung, Mean (hydroxyproline; Group 5 Bleo/BETi1 3 mg/mL): 0.2003 μg/mg tissue
- Hydroxyproline Level of Lung, individual animals (hydroxyproline; Group 5 Bleo/BETi1 3 mg/mL): 0.1935 μg/mg tissue and 0.0596 μg/mg tissue and 0.2200 μg/mg tissue and 0.2800 μg/mg tissue and 0.2731 μg/mg tissue and 0.1308 μg/mg tissue and 0.2466 μg/mg tissue and 0.1112 μg/mg tissue and 0.3107 μg/mg tissue and 0.2382 μg/mg tissue and 0.3024 μg/mg tissue and 0.1349 μg/mg tissue and 0.1029 μg/mg tissue
- Mean Diff., Hydroxyproline Level of Lung, Group 2 Bleo/Veh vs. BETi1 group (hydroxyproline; Group 5 Bleo/BETi1 3 mg/mL): 0.1137
- Mean 2 (group mean), Hydroxyproline Level of Lung (hydroxyproline; Group 5 Bleo/BETi1 3 mg/mL): 0.2003
